Laboratory results from US6984496B2, “Vitro assay for testing gabapentinoid activity” (Warner-Lambert Company, priority 2001, dated 2006).
Ends that are not written are not given here.

Legend:
[1] = system: rat mGluR5 mediated Erk-2 phosphorylation; assay: mGluR5 mediated Erk phosphorylation in CHO-mGluR5 cells, Western blot with anti-pErk antibody; format: cell-based
Procedure: . Products from treated cells were analyzed by Western blotting with anti-pErk antibody.
CHO cells engineered to express mGluR5 (CHO-mGluR5 cells) were plated in 12-well tissue culture plates at a density of 20,000 cells/well and grown for 24 hours, followed by further culturing in serum free medium for 16 hours. CHO-mGluR5 cells were incubated in Krebs buffer for 30 minutes at which time 1 mM sodium pyruvate and 10 μ/mL glutamic-pyruric transaminase was added. […] . […] Proteins in cell extracts were separated by SDS-PAGE and transferred to nitrocellulose membrane. The membrane was blocked overnight at 4° C. with 4% BSA in Tris-buffered saline containing 0.2% (v/v) Tween 20 (TBST). The membrane was then incubated for 1 hour at room temperature (RT) with antiphospho MAP kinase antibody (1:1000 dilution) in 1% BSA and TBST, then washed with TBST followed by incubation with antirabbit IgG HRP antibody. After a final wash with TBST, the membrane was visualized using enhanced chemiluminescence reagents.
Activation of Erk-1 and -2 by stimulating CHO-mGluR5 cells with 100 μM quisqualate was examined by using an antibody specific to phosphorylated Erk-1 and -2. As shown in FIG. 1 (Lane 1), there was little phosphorylated Erk-1 and -2 in unstimulated CHO cells. […] .

[2] = system: NK1 mediated Elk-1 transcription; assay: NK1 mediated Elk-1 luciferase reporter assay in CHO-NK-1 cells stimulated with substance P; settings: substance P 20 nM, 4 hours
Procedure: CHO-NK-1 cells were seeded to plates and grown to confluency overnight. Lipofectamine transfection was performed on the confluent cells to insert Elk-1 and luciferase vectors necessary for a MAP kinase dependent reporter system. Prior to transfection, the cells were washed in OPTI media (Gibco). To each confluent well in a 24-well plate, 20 ng of Elk-1 and 200 ng of luciferase DNA vectors were added. In addition to the vectors, 1.5 μL of Lipofectamine Reagent (Gibco) and OPTI media (Gibco) were also added for a total transfection volume of 200 μL (a master mix was made prior to use). After a 3-hour incubation, the media was changed to F-12 growing media (500 μL/well) for an additional 3-hour incubation. After the second incubation, the media was changed again to DMEM (500 μL/well) for serum starvation and incubated overnight (all incubations at 37° C.).
In addition, lipofectamine transfection was performed on CHO-NK-1 confluent cells to insert a GAL4-Elk-1 fusion protein and luciferase vector using the methods described above.
The DMEM media was decanted off the plate, and the cells were washed with 500 μL of Kreb buffer. After the wash, 460 μL of Kreb buffer containing 2 mM sodium pyruvate was added to each well and incubated for 30 minutes at 37° C. Next, 20 μL of compound was added to each well at the desired concentration and incubated for another 30 minutes. […] Finally, the cells were stimulated with Substance-P (final concentration=20 nM), and the cells were incubated for 4 hours at 37° C. After the 4-hour incubation, the buffer was decanted off the plate, and the plate was washed twice with Dulbecco's-PBS. Cells were lysed with 100 μL per well of cell Lysis Buffer (Promega), and the plate was vortexed for 10 minutes. Finally, 10 μL of the cell lysate was transferred to a 96-well reader plate, and each well's luminescence was measured using a luminometer (the Promega Luciferase Reporter system was used).

[3] = system: PMA mediated Erk-2 phosphorylation; assay: PMA mediated Erk-2 phosphorylation in differentiated IMR-32 cells, Western blot; format: cell-based, human; settings: 30 minutes preincubation, PMA stimulation
Procedure: […]. Differentiated IMR-32 cells were pretreated with indicated concentrations of gabapentin for 30 minutes and then stimulated with PMA for 10 minutes. Products from treated cells were analyzed by Western blotting with anti-pErk antibody.
IMR-32 cells were grown in MEM media (Gibco BRL, 11095-080), supplemented with 10% fetal bovine serum (Gibco BRL, 26140-087), 1% antibiotic-antimycotic (Gibco BRL, 15240-096), and 1% L-glutamine (Gibco BRL, 25030-032). Cells, grown to confluency, were differentiated for a period of 7 to 10 days, or longer, by adding 1 mM dibutyryl cAMP (Sigma D-0627) and 2.5 μM 5-bromo-2-deoxyuridine (Sigma B-9285) to the media. The differentiation media was fed continuously to cells until the cells were used in an experiment. Cells were divided into groups and preincubated for 30 minutes either in the presence or absence of indicated concentration of gabapentin then subsequently challenged with 50 nM PMA for […]. […]. Proteins in cell extracts were separated by SDS-PAGE and transferred to nitrocellulose membrane. The nitrocellulose membrane was blocked overnight at 4° C. with 4% BSA in Tris-buffered saline containing 0.2% (v/v) Tween 20 (TBST). The membrane was then incubated for 1 hour at RT with antiphospho MAP kinase antibody (1:1000 dilution) in 1% BSA and TBST, then washed with TBST followed by incubation with antirabbit IgG HRP antibody. […]

[4] = system: PMA mediated Elk-1 transcription in CHO cells; assay: PMA mediated Elk-1 reporter assay in CHO cells
Procedure: (§2) PKC competent cells are stimulated with PMA, preferably in the range of 50 nM, to activate Erk-2. Activated Erk-2, as discussed above, activates Elk-1 which induces reporter gene expression. […] As above, cells may be incubated with the target compound before treatment with PMA.

[5] = system: PMA mediated Elk-1 transcription in IMR-32 cells; assay: PMA mediated Elk-1 reporter assay in IMR-32 cells; settings: 50 nM PMA
Procedure: as §2

[6] = system: MAP kinase; assay: MAP kinase activation in CHO-NK-1 cells, Western blot with activation-specific antibodies; format: cell-based, Chinese Hamster; settings: 10 nM substance-P, data not shown
[7] = system: P38; assay: P38 activation in CHO-NK-1 cells, Western blot with activation-specific antibodies; format: cell-based, Chinese Hamster; settings: 10 nM substance-P, data not shown
Excerpt: (§1) Since P38 and Jun kinases are closely related to MAP kinase, the effects of substance-P on these kinases was examined.

[8] = system: Jun kinase; assay: Jun kinase activation in CHO-NK-1 cells, Western blot with activation-specific antibodies; format: cell-based, Chinese Hamster; settings: 10 nM substance-P, data not shown
Excerpt: as §1

O=C(NOCC1CC1)c1ccc(F)c(F)c1Nc1ccc(I)cc1Cl [PD 184352]
effect on quisqualate activated Erk phosphorylation (positive control) ([1]; CHO-mGluR5 cells, data not shown): block the effect of quisquolate | inhibition of Elk-1 mediated luciferase activity elicited by substance P [2]: completely inhibited

NCC1(CC(=O)O)CCCCC1 [gabapentin, 1-(aminomethyl) cyclohexaneacetic acid]
reduction of quisqualate activated phosphorylated Erk-2 ([1]; 100 μM compound preincubated 30 minutes, 100 μM quisqualate 5 minutes, CHO-mGluR5 cells): 50% | phosphorylated Erk-1 and -2 in the absence of quisqualate ([1]; gabapentin treated CHO-mGluR5 cells, no quisqualate (Lane 3)): little or no phosphorylated Erk-1 and -2 | effect on PMA increased Erk-2 phosphorylation [3]: dose-dependently blocked | effect on PMA activated reporter gene activity [4]: in a dose-dependent manner, reduced | effect on PMA-induced Elk-1 reporter gene expression [5]: dose-dependently decreased | inhibition of Elk-1 mediated luciferase activity elicited by substance P [2]: dose dependent inhibition

CC(C)C[C@H](CN)CC(=O)O [pregabalin]
inhibition of Elk-1 mediated luciferase activity elicited by substance P [2]: dose dependent inhibition

substance-P: a tackykinin neuropeptide that acts through the NK1, NK2, and NK3 receptors (RPKPQQFFGLM-NH2; ends and bridges not checked; UniProt P20366 58-68, looked up)
activation of MAP kinase [6]: significantly activated | activation of P38 [7]: no effect | activation of Jun kinase [8]: no effect
